Data: patent US20220089593A1, “PDE9 INHIBITOR AND USE THEREOF” (TRANSTHERA SCIENCES (NANJING), INC., priority 2019, published 2022)

Experiments:
human PDE9 = human PDE9 (Homo sapiens, UniProt O76083); settings: background statement; cited from earlier work
PDE9A2 enzyme = biological target: T1, PDE9A2 enzyme (Homo sapiens, UniProt O76083); experiment: PDE9 enzymatic evaluation; format: biochemical; settings: PDE9A2 enzyme (BPS), fluorescence reading 480 nm/535 nm, room temperature
T1 construct: purchased BPS 60090

[1] = Dog liver microsomal stability; format: in vitro ADME; settings: dog liver microsomes 0.5 mg protein/mL, compound 1 μM, β-NADPH 1 mM, 37° C.
Method: Test samples: the compounds disclosed herein and the compound 1-8 of patent WO2017019723A1 (prepared by referring to the examples for synthesis in WO2017019723A1) having the following structural formula: […]
An appropriate amount of the compound was precisely weighed out and dissolved in DMSO to prepare a 5.0 mM stock solution. The 5.0 mM stock solution was diluted to 1.0 mM with DMSO, and then diluted with water to 10 μM compound working solution for later use (DMSO content in the reaction system: 0.1% v/v).
Vd=1/protein content in liver microsomes

T1 sequence (O76083 1-533 isoform O76083-2): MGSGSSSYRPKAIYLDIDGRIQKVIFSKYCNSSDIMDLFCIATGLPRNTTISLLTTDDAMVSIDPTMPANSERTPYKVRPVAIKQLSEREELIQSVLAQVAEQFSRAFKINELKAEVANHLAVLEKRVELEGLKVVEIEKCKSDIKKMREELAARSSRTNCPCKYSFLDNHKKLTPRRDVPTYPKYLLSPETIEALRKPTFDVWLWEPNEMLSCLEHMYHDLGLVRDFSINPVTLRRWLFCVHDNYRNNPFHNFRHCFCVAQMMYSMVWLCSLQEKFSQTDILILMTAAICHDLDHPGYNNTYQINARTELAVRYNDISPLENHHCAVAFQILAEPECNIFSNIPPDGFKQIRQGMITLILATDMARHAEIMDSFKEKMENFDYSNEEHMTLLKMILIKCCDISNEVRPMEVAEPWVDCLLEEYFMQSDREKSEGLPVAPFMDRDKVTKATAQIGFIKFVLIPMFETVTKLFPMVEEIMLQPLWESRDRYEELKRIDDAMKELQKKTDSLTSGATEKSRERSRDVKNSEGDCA
Chain of human PDE9 (O76083 whole entry): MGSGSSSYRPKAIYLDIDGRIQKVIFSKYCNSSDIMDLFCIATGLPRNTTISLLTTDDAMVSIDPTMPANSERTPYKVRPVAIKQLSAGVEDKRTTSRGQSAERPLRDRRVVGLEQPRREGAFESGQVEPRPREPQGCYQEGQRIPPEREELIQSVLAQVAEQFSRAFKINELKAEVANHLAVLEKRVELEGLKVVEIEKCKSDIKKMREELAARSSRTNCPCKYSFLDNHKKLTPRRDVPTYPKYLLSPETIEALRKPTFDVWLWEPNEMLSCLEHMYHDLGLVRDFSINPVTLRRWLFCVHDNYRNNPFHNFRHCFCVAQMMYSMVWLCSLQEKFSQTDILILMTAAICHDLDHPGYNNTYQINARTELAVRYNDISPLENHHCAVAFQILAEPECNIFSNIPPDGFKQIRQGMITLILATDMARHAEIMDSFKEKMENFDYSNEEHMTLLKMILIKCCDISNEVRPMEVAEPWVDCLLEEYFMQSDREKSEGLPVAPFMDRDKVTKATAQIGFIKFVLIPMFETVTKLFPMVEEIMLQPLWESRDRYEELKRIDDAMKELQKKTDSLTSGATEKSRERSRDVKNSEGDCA

Compound	IC50 (PDE9A2 enzyme)	half-life at 1 μM [1]	microsomal CLint at 1 μM [1]	inhibitory activity against PDE9 (human PDE9)
CC(=O)Nc1ccc(-c2c[nH]c(=O)cn2)cc1 [SKF94120]				no inhibitory activity or low inhibitory activity
COC1(C)CCN(c2c(C#N)c(=O)[nH]c3cnc([C@H](C)O)cc23)CC1 (single isomer, unassigned) [Compound B, 6-(1-hydroxyethyl)-4-(4-methoxy-4-methylpiperidin-1-yl)-2-oxo-1,2-dihydro-1,7-naphthyridine-3-carbonitrile]		14.4 h	1.6 µL/min/mg	
CCOC(=O)C1=C[C@]2(CC)CCCN3CCc4c(n1c1ccccc41)[C@@H]32 [vinpocetine]				no inhibitory activity or low inhibitory activity
COc1ccc(C2CNC(=O)C2)cc1OC1CCCC1 (stereo not shown) [rolipram]				no inhibitory activity or low inhibitory activity
COC1(C)CCN(c2c(C#N)c(=O)[nH]c3cnc(CO)cc23)CC1 [Compound 177, 6-(hydroxymethyl)-4-(4-methoxy-4-methylpiperidin-1-yl)-2-oxo-1,2-dihydro-1,7-naphthyridine-3-carbonitrile]	15 nM			
OCCN(CCO)c1nc(N2CCCCC2)c2nc(N(CCO)CCO)nc(N3CCCCC3)c2n1 [dipyridamole]				no inhibitory activity or low inhibitory activity
CCc1ccc2[nH]c(=O)c(C#N)c(N3CCC(C)(OC)CC3)c2n1 [Compound 167, 6-ethyl-4-(4-methoxy-4-methylpiperidin-1-yl)-2-oxo-1,2-dihydro-1,5-naphthyridine-3-carbonitrile]	11 nM	2.32 h	10 µL/min/mg	
COC1(C)CCN(c2c(C#N)c(=O)[nH]c3ccc(C)nc23)CC1 [Compound 166, 4-(4-methoxy-4-methylpiperidin-1-yl)-6-methyl-2-oxo-1,2-dihydro-1,5-naphthyridine-3-carbonitrile]	19 nM	6.8 h	3.4 µL/min/mg	
CC(C)Cn1c(=O)n(C)c(=O)c2[nH]cnc21 [IBMX]				no inhibitory activity or low inhibitory activity
COC1(C)CCN(c2c(C#N)c(=O)[nH]c3cnc(C(C)OP(=O)([O-])[O-])cc23)CC1.[Na+].[Na+] (stereo not shown) [Compound 204]		8.25 h	2.8 µL/min/mg	

Now from value to compound, other results behind:

IC50 (PDE9A2 enzyme)	half-life at 1 μM [1]	microsomal CLint at 1 μM [1]	Compound	inhibitory activity against PDE9 (human PDE9)
37 nM			CC(O)c1cc2c(N3CCC(C)(O)CC3)c(C#N)c(=O)[nH]c2cn1 (stereo not shown) [Compound 194, 4-(4-hydroxy-4-methylpiperidin-1-yl)-6-(1-hydroxyethyl)-2-oxo-1,2-dihydro-1,7-naphthyridine-3-carbonitrile]	
50 nM			COC1(C)CCN(c2c(C#N)c(=O)[nH]c3cnc(C(C)C)cc23)CC1 [Compound 163, 6-isopropyl-4-(4-methoxy-4-methylpiperidin-1-yl)-2-oxo-1,2-dihydro-1,7-naphthyridine-3-carbonitrile]	
70 nM			CC1(C)CCN(c2c(C#N)c(=O)[nH]c3ccccc23)CC1 [Compound I-11, reference compound]	
	0.2 h	116 µL/min/mg	N#Cc1c(N2CCCCCC2)c2ccccc2[nH]c1=O [Compound I-8, reference compound]	
24 nM			COC1(C)CCN(c2c(C#N)c(=O)[nH]c3cccnc23)CC1 [Compound 165, 4-(4-methoxy-4-methylpiperidin-1-yl)-2-oxo-1,2-dihydro-1,5-naphthyridine-3-carbonitrile]	
